Legend:
Experiment in all cases: in vitro NanoGlo kinase activity assay, n=[…]
Type in all cases: biochemical
[1] = molecular target: CLK2 (Homo sapiens, UniProt P49760)
[2] = molecular target: CLK3 (Homo sapiens, UniProt P49761)
[3] = molecular target: CLK1 (Homo sapiens, UniProt P49759)
CLK1, sequence (P49759 whole entry): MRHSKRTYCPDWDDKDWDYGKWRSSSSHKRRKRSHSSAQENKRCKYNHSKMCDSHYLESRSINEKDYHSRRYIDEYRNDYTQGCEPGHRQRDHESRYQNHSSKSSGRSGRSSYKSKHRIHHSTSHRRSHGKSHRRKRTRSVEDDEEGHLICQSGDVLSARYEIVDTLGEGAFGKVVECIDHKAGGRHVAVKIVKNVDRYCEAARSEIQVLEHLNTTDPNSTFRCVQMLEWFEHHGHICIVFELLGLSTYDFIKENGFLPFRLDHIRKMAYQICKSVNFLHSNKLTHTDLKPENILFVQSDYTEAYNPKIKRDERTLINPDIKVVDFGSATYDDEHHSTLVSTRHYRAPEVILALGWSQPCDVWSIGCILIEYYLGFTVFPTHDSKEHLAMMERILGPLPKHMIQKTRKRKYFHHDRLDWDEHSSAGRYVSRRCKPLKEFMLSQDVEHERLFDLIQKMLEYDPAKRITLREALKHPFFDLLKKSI

CLK3, sequence (P49761 whole entry): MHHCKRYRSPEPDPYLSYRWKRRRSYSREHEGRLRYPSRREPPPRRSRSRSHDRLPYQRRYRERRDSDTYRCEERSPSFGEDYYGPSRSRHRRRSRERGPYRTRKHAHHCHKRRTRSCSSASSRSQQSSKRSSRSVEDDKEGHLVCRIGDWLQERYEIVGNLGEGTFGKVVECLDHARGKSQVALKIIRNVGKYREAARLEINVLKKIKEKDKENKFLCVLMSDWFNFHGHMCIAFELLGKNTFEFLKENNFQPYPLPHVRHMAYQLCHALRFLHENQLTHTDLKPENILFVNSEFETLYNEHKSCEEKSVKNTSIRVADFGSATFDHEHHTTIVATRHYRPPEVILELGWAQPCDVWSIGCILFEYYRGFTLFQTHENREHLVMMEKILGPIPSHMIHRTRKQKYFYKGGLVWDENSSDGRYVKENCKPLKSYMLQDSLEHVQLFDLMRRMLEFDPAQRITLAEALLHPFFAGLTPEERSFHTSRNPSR
CLK2, sequence (P49760 whole entry): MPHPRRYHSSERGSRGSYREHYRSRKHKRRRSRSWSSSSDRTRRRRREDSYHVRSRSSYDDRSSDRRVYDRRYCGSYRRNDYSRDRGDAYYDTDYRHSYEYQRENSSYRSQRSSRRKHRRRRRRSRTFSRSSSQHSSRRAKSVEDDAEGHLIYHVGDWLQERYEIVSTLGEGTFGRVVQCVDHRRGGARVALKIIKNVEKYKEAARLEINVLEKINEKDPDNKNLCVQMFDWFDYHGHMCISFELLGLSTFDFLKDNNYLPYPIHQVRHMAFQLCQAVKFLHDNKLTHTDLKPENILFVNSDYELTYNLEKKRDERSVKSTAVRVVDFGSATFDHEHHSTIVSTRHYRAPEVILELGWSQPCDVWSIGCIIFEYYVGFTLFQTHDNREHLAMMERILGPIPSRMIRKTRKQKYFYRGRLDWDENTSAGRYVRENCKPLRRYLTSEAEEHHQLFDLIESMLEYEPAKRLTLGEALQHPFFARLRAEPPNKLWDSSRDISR

Structure (SMILES): O=C(Nc1cc(C2CCCC2)n[nH]1)c1ccc2c(c1)[nH]c(=O)n2C1CCCC1 [SR-1815]
- IC50 [1]: 605 nM
- IC50 [2]: 6800 nM
- IC50 [3]: 446 nM
